From ChEMBL document CHEMBL3885881, “DrugMatrix”

Species on record: Rattus norvegicus
Assay: DrugMatrix - Regimen: Daily Repeat
Type: toxicity, organism-based, Sprague-Dawley
Set-up: regimen Daily Repeat, gender Male, age 6-8 weeks
Conditions: in vivo, po, route oral GAVAGE, vehicle .5 % CMC; for BASOPHIL / EOSINOPHIL / ERYTHROCYTE COUNT / HEMATOCRIT / HEMOGLOBIN / LEUKOCYTE COUNT / LYMPHOCYTE / MEAN CORPUSCULAR HEMOGLOBIN / MEAN CORPUSCULAR HEMOGLOBIN CONCENTRATION / MEAN CORPUSCULAR VOLUME / MONOCYTE / NEUTROPHIL / PLATELET COUNT: tissue Blood; for ALANINE AMINOTRANSFERASE / ALBUMIN / ALKALINE PHOSPHATASE / ASPARTATE AMINOTRANSFERASE / BLOOD UREA NITROGEN / CHLORIDE / CHOLESTEROL / CREATINE PHOSPHOKINASE / CREATININE / GLUCOSE / PHOSPHORUS / POTASSIUM / SODIUM / TOTAL BILIRUBIN / TOTAL PROTEIN: tissue Plasma
[1] = 0 mg/kg, 72 h, dose level Control, time 3 day
[2] = 0 mg/kg, 120 h, dose level Control, time 5 day
[3] = 25 mg/kg, 72 h, dose level Low, time 3 day
[4] = 25 mg/kg, 120 h, dose level Low, time 5 day

## C[C@]12CCC(=O)C=C1CC[C@@H]1[C@@H]2C(=O)C[C@@]2(C)[C@H]1CC[C@]2(O)C(=O)CO [CORTISONE]
[1]
  BASOPHIL: 1.52%
  EOSINOPHIL: 0.98%
  ERYTHROCYTE COUNT: 6.96 x10E6/uL
  HEMATOCRIT: 44.65%
  HEMOGLOBIN: 13.62 G/DL
  LEUKOCYTE COUNT: 9.83 x10E3/uL
  LYMPHOCYTE: 76.48%
  MEAN CORPUSCULAR HEMOGLOBIN: 19.57 pg
  MEAN CORPUSCULAR HEMOGLOBIN CONCENTRATION: 30.47 G/DL
  MEAN CORPUSCULAR VOLUME: 64.22 fL
  MONOCYTE: 2.13%
  NEUTROPHIL: 18.6%
  PLATELET COUNT: 1217.17 x10E3/uL
  ALANINE AMINOTRANSFERASE: 41 u/L
  ALBUMIN: 3.77 G/DL
  ALKALINE PHOSPHATASE: 411.83 u/L
  ASPARTATE AMINOTRANSFERASE: 62.83 u/L
  BLOOD UREA NITROGEN: 15.17 mg/dL
  CHLORIDE: 104.33 MEQ/L
  CHOLESTEROL: 71.17 mg/dL
  CREATINE PHOSPHOKINASE: 123.5 u/L
  CREATININE: 0.55 mg/dL
  GLUCOSE: 182.67 mg/dL
  PHOSPHORUS: 11.23 mg/dL
  POTASSIUM: 7.03 MEQ/L
  SODIUM: 148 MEQ/L
  TOTAL BILIRUBIN: 0.57 mg/dL
  TOTAL PROTEIN: 6.85 G/DL
[2]
  BASOPHIL: 1.35%
  EOSINOPHIL: 0.43%
  ERYTHROCYTE COUNT: 6.96 x10E6/uL
  HEMATOCRIT: 44.35%
  HEMOGLOBIN: 13.98 G/DL
  LEUKOCYTE COUNT: 9.45 x10E3/uL
  LYMPHOCYTE: 80.83%
  MEAN CORPUSCULAR HEMOGLOBIN: 20.1 pg
  MEAN CORPUSCULAR HEMOGLOBIN CONCENTRATION: 31.52 G/DL
  MEAN CORPUSCULAR VOLUME: 63.72 fL
  MONOCYTE: 2.37%
  NEUTROPHIL: 14.05%
  PLATELET COUNT: 1298 x10E3/uL
  ALANINE AMINOTRANSFERASE: 42.17 u/L
  ALBUMIN: 3.77 G/DL
  ALKALINE PHOSPHATASE: 419 u/L
  ASPARTATE AMINOTRANSFERASE: 66.67 u/L
  BLOOD UREA NITROGEN: 16.67 mg/dL
  CHLORIDE: 103.17 MEQ/L
  CHOLESTEROL: 66.33 mg/dL
  CREATINE PHOSPHOKINASE: 148.33 u/L
  CREATININE: 0.58 mg/dL
  GLUCOSE: 196.83 mg/dL
  PHOSPHORUS: 11.8 mg/dL
  POTASSIUM: 6.47 MEQ/L
  SODIUM: 148.33 MEQ/L
  TOTAL BILIRUBIN: 0.53 mg/dL
  TOTAL PROTEIN: 6.77 G/DL
[3]
  BASOPHIL: 2.4%
  EOSINOPHIL: 0.4%
  ERYTHROCYTE COUNT: 6.64 x10E6/uL
  HEMATOCRIT: 45.5%
  HEMOGLOBIN: 13.9 G/DL
  LEUKOCYTE COUNT: 7.9 x10E3/uL
  LYMPHOCYTE: 78.6%
  MEAN CORPUSCULAR HEMOGLOBIN: 21 pg
  MEAN CORPUSCULAR HEMOGLOBIN CONCENTRATION: 30.6 G/DL
  MEAN CORPUSCULAR VOLUME: 68.5 fL
  MONOCYTE: 2.95%
  NEUTROPHIL: 15.4%
  PLATELET COUNT: 1648.5 x10E3/uL
  ALANINE AMINOTRANSFERASE: 43 u/L
  ALBUMIN: 3.8 G/DL
  ALKALINE PHOSPHATASE: 401 u/L
  ASPARTATE AMINOTRANSFERASE: 68.67 u/L
  BLOOD UREA NITROGEN: 12 mg/dL
  CHLORIDE: 103.67 MEQ/L
  CHOLESTEROL: 62.67 mg/dL
  CREATINE PHOSPHOKINASE: 120.67 u/L
  CREATININE: 0.53 mg/dL
  GLUCOSE: 178.33 mg/dL
  PHOSPHORUS: 12.83 mg/dL
  POTASSIUM: 6.87 MEQ/L
  SODIUM: 149 MEQ/L
  TOTAL BILIRUBIN: 0.47 mg/dL
  TOTAL PROTEIN: 6.63 G/DL
[4]
  BASOPHIL: 1.53%
  EOSINOPHIL: 0.33%
  ERYTHROCYTE COUNT: 7.03 x10E6/uL
  HEMATOCRIT: 45.13%
  HEMOGLOBIN: 14.27 G/DL
  LEUKOCYTE COUNT: 9 x10E3/uL
  LYMPHOCYTE: 77.9%
  MEAN CORPUSCULAR HEMOGLOBIN: 20.33 pg
  MEAN CORPUSCULAR HEMOGLOBIN CONCENTRATION: 31.67 G/DL
  MEAN CORPUSCULAR VOLUME: 64.27 fL
  MONOCYTE: 2.7%
  NEUTROPHIL: 16.73%
  PLATELET COUNT: 1381.67 x10E3/uL
  ALANINE AMINOTRANSFERASE: 45 u/L
  ALBUMIN: 3.7 G/DL
  ALKALINE PHOSPHATASE: 435 u/L
  ASPARTATE AMINOTRANSFERASE: 68.33 u/L
  BLOOD UREA NITROGEN: 15.33 mg/dL
  CHLORIDE: 103 MEQ/L
  CHOLESTEROL: 54 mg/dL
  CREATINE PHOSPHOKINASE: 128.67 u/L
  CREATININE: 0.5 mg/dL
  GLUCOSE: 186 mg/dL
  PHOSPHORUS: 12.57 mg/dL
  POTASSIUM: 6.6 MEQ/L
  SODIUM: 148 MEQ/L
  TOTAL BILIRUBIN: 0.47 mg/dL
  TOTAL PROTEIN: 6.6 G/DL
